# Test results: ChEMBL document CHEMBL2440076, “New triarylpyrazoles as broad-spectrum anticancer agents: design, synthesis, and biological evaluation” (Eur J Med Chem, 2013)
# pIC50: −log10 of the molar value.
# Assays:
# MCF7 = test: Growth inhibition of human MCF7 cells assessed as cell growth at 10 uM after 48 hrs by sulforhodamine B assay; type: functional; conditions: MCF7, 48 h, read-out: Activity
# HCT-116 = test: Growth inhibition of human HCT116 cells after 48 hrs by sulforhodamine B assay; type: functional; conditions: HCT-116, 48 h; for CC50: read-out: LC50 (the source's name)
# HCT-15 [1] = test: Growth inhibition of human HCT15 cells after 48 hrs by sulforhodamine B assay; type: functional; conditions: HCT-15, 48 h
# COLO 205 = test: Growth inhibition of human COLO205 cells after 48 hrs by sulforhodamine B assay; type: functional; conditions: COLO 205, 48 h
# NCI-H226 [2] = test: Growth inhibition of human NCI-H226 cells after 48 hrs by sulforhodamine B assay; type: functional; conditions: NCI-H226, 48 h; for CC50: read-out: LC50 (the source's name)
# HOP-62 = test: Growth inhibition of human HOP62 cells after 48 hrs by sulforhodamine B assay; type: functional; conditions: HOP-62, 48 h; for CC50: read-out: LC50 (the source's name)
# HOP-92 [3] = test: Growth inhibition of human HOP92 cells after 48 hrs by sulforhodamine B assay; type: functional, cell-based; conditions: HOP-92, 48 h
# SR = test: Growth inhibition of human SR cells after 48 hrs by sulforhodamine B assay; type: functional; conditions: for CC50: read-out: LC50 (the source's name)
# [4] = Growth inhibition of human NCI-ADR-RES cells assessed as cell growth at 10 uM after 48 hrs by sulforhodamine B assay; type: functional; conditions: read-out: Activity
# OVCAR-4 [5] = test: Growth inhibition of human OVCAR4 cells assessed as cell growth at 10 uM after 48 hrs by sulforhodamine B assay; type: functional; conditions: OVCAR-4, 48 h, read-out: Activity
# IGROV-1 = test: Growth inhibition of human IGROV1 cells assessed as cell growth at 10 uM after 48 hrs by sulforhodamine B assay; type: functional; conditions: IGROV-1, 48 h, read-out: Activity
# MDA-MB-435 = test: Growth inhibition of human MDA-MB-435 cells assessed as cell growth at 10 uM after 48 hrs by sulforhodamine B assay; type: functional; conditions: MDA-MB-435, 48 h, read-out: Activity
# Malme-3M [6] = test: Growth inhibition of human MALME-3M cells assessed as cell growth at 10 uM after 48 hrs by sulforhodamine B assay; type: functional; conditions: read-out: Activity
# LOX IMVI [7] = test: Growth inhibition of human LOXIMVI cells assessed as cell growth at 10 uM after 48 hrs by sulforhodamine B assay; type: functional; conditions: read-out: Activity
# SF-539 = test: Growth inhibition of human SF539 cells assessed as cell growth at 10 uM after 48 hrs by sulforhodamine B assay; type: functional; conditions: SF-539, 48 h, read-out: Activity
# HT-29 = test: Growth inhibition of human HT-29 cells assessed as cell growth at 10 uM after 48 hrs by sulforhodamine B assay; type: functional; conditions: HT-29, 48 h, read-out: Activity
# KM12 = test: Growth inhibition of human KM12 cells assessed as cell growth at 10 uM after 48 hrs by sulforhodamine B assay; type: functional; conditions: KM12, 48 h, read-out: Activity
# HCT-15 [8] = test: Growth inhibition of human HCT15 cells assessed as cell growth at 10 uM after 48 hrs by sulforhodamine B assay; type: functional; conditions: HCT-15, 48 h, read-out: Activity
# NCI-H322M = test: Growth inhibition of human NCI-H322M cells assessed as cell growth at 10 uM after 48 hrs by sulforhodamine B assay; type: functional; conditions: read-out: Activity
# NCI-H226 [9] = test: Growth inhibition of human NCI-H226 cells assessed as cell growth at 10 uM after 48 hrs by sulforhodamine B assay; type: functional; conditions: NCI-H226, 48 h, read-out: Activity
# HOP-92 [10] = test: Growth inhibition of human HOP92 cells assessed as cell growth at 10 uM after 48 hrs by sulforhodamine B assay; type: functional; conditions: HOP-92, 48 h, read-out: Activity
# SN12C = test: Growth inhibition of human SN12C cells after 48 hrs by sulforhodamine B assay; type: functional; conditions: for CC50: read-out: LC50 (the source's name)
# A498 = test: Growth inhibition of human A498 cells after 48 hrs by sulforhodamine B assay; type: functional, cell-based; conditions: A498, 48 h; for CC50: read-out: LC50 (the source's name)
# ACHN = test: Growth inhibition of human ACHN cells after 48 hrs by sulforhodamine B assay; type: functional; conditions: for CC50: read-out: LC50 (the source's name)
# OVCAR-8 = test: Growth inhibition of human OVCAR8 cells after 48 hrs by sulforhodamine B assay; type: functional; conditions: OVCAR-8, 48 h; for CC50: read-out: LC50 (the source's name)
# OVCAR-4 [11] = test: Growth inhibition of human OVCAR4 cells after 48 hrs by sulforhodamine B assay; type: functional; conditions: OVCAR-4, 48 h
# UACC-62 = test: Growth inhibition of human UACC62 cells after 48 hrs by sulforhodamine B assay; type: functional; conditions: UACC-62, 48 h
# M14 = test: Growth inhibition of human M14 cells after 48 hrs by sulforhodamine B assay; type: functional; conditions: M14, 48 h
# Malme-3M [12] = test: Growth inhibition of human MALME-3M cells after 48 hrs by sulforhodamine B assay; type: functional
# LOX IMVI [13] = test: Growth inhibition of human LOXIMVI cells after 48 hrs by sulforhodamine B assay; type: functional
# SNB-19 = test: Growth inhibition of human SNB19 cells after 48 hrs by sulforhodamine B assay; type: functional; conditions: SNB-19, 48 h
# SF-268 = test: Growth inhibition of human SF268 cells after 48 hrs by sulforhodamine B assay; type: functional; conditions: SF-268, 48 h; for CC50: read-out: LC50 (the source's name)
# A549 = test: Growth inhibition of human A549/ATCC cells assessed as cell growth at 10 uM after 48 hrs by sulforhodamine B assay; type: functional; conditions: A549, 48 h, read-out: Activity
# MOLT-4 = test: Growth inhibition of human MOLT4 cells assessed as cell growth at 10 uM after 48 hrs by sulforhodamine B assay; type: functional; conditions: MOLT-4, 48 h, read-out: Activity
# CCRF-CEM = test: Growth inhibition of human CCRF-CEM cells assessed as cell growth at 10 uM after 48 hrs by sulforhodamine B assay; type: functional; conditions: read-out: Activity
compound,measurement,setting,value
COc1cc(-c2nn(-c3cccc(NC(=O)c4ccccc4)c3)cc2-c2ccncc2)ccc1Cl,growth at 10 µM,MCF7,4.67%
same,GI50,HCT-116,0.5 µM
same,TGI,HCT-116,> 100 µM
same,CC50,HCT-116,> 100 µM
same,GI50,HCT-15 [1],0.654 µM
same,LC50,HCT-15 [1],> 100 µM
same,TGI,HCT-15 [1],> 100 µM
same,GI50,COLO 205,0.522 µM
same,LC50 (concentration killing 50% of cells),COLO 205,68.4 µM
same,TGI,COLO 205,3.23 µM
same,GI50,NCI-H226 [2],2.35 µM
same,TGI,NCI-H226 [2],> 100 µM
same,CC50,NCI-H226 [2],> 100 µM
same,GI50,HOP-62,8.34 µM
same,TGI,HOP-62,> 100 µM
same,CC50,HOP-62,> 100 µM
same,GI50,HOP-92 [3],0.324 µM
same,pIC50,HOP-92 [3],6.49
same,LC50,HOP-92 [3],> 100 µM
same,TGI,HOP-92 [3],4.71 µM
same,GI50,SR,0.25 µM
same,TGI,SR,> 100 µM
same,CC50,SR,> 100 µM
same,growth at 10 µM,[4],0.34%
same,growth at 10 µM,OVCAR-4 [5],46.5%
same,growth at 10 µM,IGROV-1,47.4%
same,growth at 10 µM,MDA-MB-435,-57.9%
same,growth at 10 µM,Malme-3M [6],22.4%
same,growth at 10 µM,LOX IMVI [7],17.4%
same,growth at 10 µM,SF-539,-15%
same,growth at 10 µM,HT-29,2.03%
same,growth at 10 µM,KM12,12.3%
same,growth at 10 µM,HCT-15 [8],19.2%
same,growth at 10 µM,NCI-H322M,52.3%
same,growth at 10 µM,NCI-H226 [9],39.1%
same,growth at 10 µM,HOP-92 [10],9.19%
same,GI50,SN12C,2.95 µM
same,TGI,SN12C,> 100 µM
same,CC50,SN12C,> 100 µM
same,GI50,A498,0.361 µM
same,pIC50,A498,6.44
same,TGI,A498,3.14 µM
same,CC50,A498,> 100 µM
same,GI50,ACHN,0.754 µM
same,TGI,ACHN,> 100 µM
same,CC50,ACHN,> 100 µM
same,GI50,OVCAR-8,0.995 µM
same,TGI,OVCAR-8,> 100 µM
same,CC50,OVCAR-8,> 100 µM
same,GI50,OVCAR-4 [11],1.17 µM
same,LC50 (concentration killing 50% of cells),OVCAR-4 [11],> 100 µM
same,TGI,OVCAR-4 [11],> 100 µM
same,GI50,UACC-62,0.692 µM
same,LC50 (50% lethal concentration),UACC-62,> 100 µM
same,TGI,UACC-62,> 100 µM
same,GI50,M14,0.575 µM
same,LC50 (concentration killing 50% of cells),M14,> 100 µM
same,TGI,M14,12.9 µM
same,GI50,Malme-3M [12],0.537 µM
same,LC50 (concentration killing 50% of starting cells),Malme-3M [12],> 100 µM
same,TGI,Malme-3M [12],> 100 µM
same,GI50,LOX IMVI [13],0.567 µM
same,LC50,LOX IMVI [13],> 100 µM
same,TGI,LOX IMVI [13],> 100 µM
same,GI50,SNB-19,0.86 µM
same,LC50 (concentration killing 50% of cells),SNB-19,> 100 µM
same,TGI,SNB-19,> 100 µM
same,GI50,SF-268,0.859 µM
same,TGI,SF-268,> 100 µM
same,CC50,SF-268,> 100 µM
same,growth at 10 µM,A549,4.81%
same,growth at 10 µM,MOLT-4,0.66%
same,growth at 10 µM,CCRF-CEM,2.06%
COc1cc(-c2nn(-c3cccc(NC(=O)c4ccc(Cl)c(C(F)(F)F)c4)c3)cc2-c2ccncc2)ccc1Cl,growth at 10 µM,MCF7,37.6%
same,GI50,HCT-116,2.49 µM
same,TGI,HCT-116,> 32.5 µM
same,CC50,HCT-116,> 32.5 µM
same,GI50,HCT-15 [1],3.25 µM
same,LC50,HCT-15 [1],> 32.5 µM
same,TGI,HCT-15 [1],> 32.5 µM
same,GI50,COLO 205,6.14 µM
same,LC50 (concentration killing 50% of cells),COLO 205,> 32.5 µM
same,TGI,COLO 205,23.3 µM
same,GI50,NCI-H226 [2],5.9 µM
same,TGI,NCI-H226 [2],> 32.5 µM
same,CC50,NCI-H226 [2],> 32.5 µM
same,GI50,HOP-62,13.1 µM
same,TGI,HOP-62,> 32.5 µM
same,CC50,HOP-62,> 32.5 µM
same,GI50,HOP-92 [3],0.665 µM
same,pIC50,HOP-92 [3],6.17
same,LC50,HOP-92 [3],> 32.5 µM
same,TGI,HOP-92 [3],3.23 µM
same,GI50,SR,0.848 µM
same,TGI,SR,> 32.5 µM
same,CC50,SR,> 32.5 µM
same,growth at 10 µM,[4],13.4%
same,growth at 10 µM,OVCAR-4 [5],66%
same,growth at 10 µM,IGROV-1,48.9%
same,growth at 10 µM,MDA-MB-435,-26.8%
same,growth at 10 µM,Malme-3M [6],16.8%
same,growth at 10 µM,LOX IMVI [7],32.2%
same,growth at 10 µM,SF-539,33%
same,growth at 10 µM,HT-29,50.1%
same,growth at 10 µM,KM12,28.8%
same,growth at 10 µM,HCT-15 [8],51.7%
same,growth at 10 µM,NCI-H322M,84.9%
same,growth at 10 µM,NCI-H226 [9],56.3%
same,growth at 10 µM,HOP-92 [10],22.5%
same,GI50,SN12C,11.2 µM
same,TGI,SN12C,> 32.5 µM
same,CC50,SN12C,> 32.5 µM
same,GI50,A498,2.7 µM
same,pIC50,A498,5.57
same,TGI,A498,22.7 µM
same,CC50,A498,> 32.5 µM
same,GI50,ACHN,2.73 µM
same,TGI,ACHN,> 32.5 µM
same,CC50,ACHN,> 32.5 µM
same,GI50,OVCAR-8,3.35 µM
same,TGI,OVCAR-8,> 32.5 µM
same,CC50,OVCAR-8,> 32.5 µM
same,GI50,OVCAR-4 [11],8.04 µM
same,LC50 (concentration killing 50% of cells),OVCAR-4 [11],> 32.5 µM
same,TGI,OVCAR-4 [11],> 32.5 µM
same,GI50,UACC-62,2.1 µM
same,LC50 (50% lethal concentration),UACC-62,> 32.5 µM
same,TGI,UACC-62,> 32.5 µM
same,GI50,M14,2.79 µM
same,LC50 (concentration killing 50% of cells),M14,> 32.5 µM
same,TGI,M14,> 32.5 µM
same,GI50,Malme-3M [12],1.18 µM
same,LC50 (concentration killing 50% of starting cells),Malme-3M [12],> 32.5 µM
same,TGI,Malme-3M [12],19.7 µM
same,GI50,LOX IMVI [13],1.92 µM
same,LC50,LOX IMVI [13],> 32.5 µM
same,TGI,LOX IMVI [13],> 32.5 µM
same,GI50,SNB-19,8.68 µM
same,LC50 (concentration killing 50% of cells),SNB-19,> 32.5 µM
same,TGI,SNB-19,> 32.5 µM
same,GI50,SF-268,4.86 µM
same,TGI,SF-268,> 32.5 µM
same,CC50,SF-268,> 32.5 µM
same,growth at 10 µM,A549,23.3%
same,growth at 10 µM,MOLT-4,20.3%
same,growth at 10 µM,CCRF-CEM,12.4%
